We go through two compounds from publication PMC7760690, “Neuroprotective Metabolites from Vietnamese Marine Derived Fungi of Aspergillus and Penicillium Genera” (Marine Drugs, 2020).

Read-outs that look alike come from different tables or passages of the source. Bounds are passed on as bounds.

One series has as its system HeLa. Set-up: method as in PMID 24871461. Particulars: cited from earlier work.
Series [1] concerns several microbial pathogens. On the set-up: method as in PMID 17994702, doi:10.1016/j.phytol.2015.04.009. To be noted: cited from earlier work.
In series [2] the test system is 6-OHDA-treated Neuro-2a cells. Description: ROS level in 6-OHDA-treated cells (H2DCFDA). The series is classed as cell-based, murine. To be noted: compounds 1-5; compound 10 µM 1 h, 6-OHDA 50 µM 1 h. The protocol: (§1) The murine neuroblastoma cell line Neuro-2a was purchased from ATCC.
(§2) Neuro-2a cells were cultured in DMEM medium containing 10% fetal bovine serum (Biolot, St. Petersburg, Russia) and 1% penicillin/streptomycin (Biolot, St. Petersburg, Russia). Cells were incubated at 37 °C in a humidified atmosphere containing 5% (v/v) CO2 [71].
(§3) The cells (1 × 10^4 cells/well of a 96-well plate) were incubated with compound solutions (10 µM) during 1 h. Then, 6-OHDA/PQ/rotenone were added to cell suspension to resulting concentration of 50 µM, 500 µM and 10 µM respectively for incubation during 1 h. Cells incubated without neurotoxins and compounds and with neurotoxins alone were used as positive and negative controls, respectively. The 20 µL of 2,7-dichlorodihydrofluorescein diacetate solution (H2DCFDA, Molecular Probes, Eugene, OR, USA) was added to each well (10 µM, final concentration) and the plate was incubated for an additional 10 min at 37 °C. The intensity of dichlorofluorescein fluorescence was measured with PHERAstar FS plate reader (BMG Labtech, Ortenberg, Germany) at λex = 485 nm and λem = 518 nm. The data were processed by MARS Data Analysis v. 3.01R2 (BMG Labtech, Germany). The results were presented as the percent of positive control data.

The test system of series [3] is Neuro-2a cells treated with 6-OHDA. Description: 6-OHDA-induced PD cell model, cell viability (MTT). It is filed as cell-based, murine. To be noted: compounds 1-5; 1 and/or 10 µM; 6-OHDA 50 µM; 24 h. The protocol: as §1, §2
(§4) The neuroblastoma Neuro-2a line cells (1 × 10^4 cells/well) were treated with the test compounds at concentrations of 1 and/or 10 µM for 1 h, and then the neurotoxins were added to the neuroblastoma cell suspensions. Rotenone (Sigma-Aldrich, USA) was used at the concentration of 10 µM. Paraquat (Sigma-Aldrich, USA) was used at 500 µM. 6-Hydroxydopamine (Sigma-Aldrich, USA) was used at 50 µM. Cells incubated without neurotoxins and the test compounds and cells incubated with neurotoxins only were used as positive and negative controls, respectively. After 24 h of incubation, the cell viabilities were measured using the MTT method. The results are presented as the percent of positive control data.

Series [4] relates to PQ-treated Neuro-2a cells. Description: ROS level in PQ-treated cells (H2DCFDA). To be noted: compounds 1-5; compound 10 µM 1 h, PQ 500 µM 1 h. It is filed as cell-based, murine. The protocol:
as §1, §2
as §3, with “The cells (1 × 10^4 cells/well of a 96-well plate) were incubated with compound solutions (10 µM) during 1 h.” left out

A short description of the next series: MTT cytotoxicity assay. The series is classed as cell-based, murine. To be noted: mouse, Neuro-2a neuroblastoma cells; Neuro-2a cells, MTT. The protocol:
as §1, §2
(§5) The in vitro cytotoxicity of the individual substances was evaluated using an MTT (3-(4,5-dimethylthiazol-2-yl)-2,5-diphenyltetrazolium bromide) assay, which was performed according to the manufacturer’s instructions (Sigma-Aldrich, USA). Absorbance of the converted formazan was measured using a Multiskan FC plate photometer (Thermo Scientific, Waltham, MA, USA) at λ = 570 nm. The results were presented as percent of control data, and concentration of cell viability inhibition on 50% (IC50) was calculated.

The subject of series [5] is neuroblastoma Neuro-2a cells. Description: MTT cytotoxicity assay. The series is classed as cell-based, murine. Particulars: up to 100 µM. The protocol: as §1, §2, §5
The subject of series [6] is rotenone-treated Neuro-2a cells. Description: ROS level in rotenone-treated cells (H2DCFDA). The series is classed as cell-based, murine. To be noted: compounds 1-5; compound 10 µM 1 h, rotenone 10 µM 1 h. The protocol: as §1, §2, §3
The test system of series [7] is PQ-treated Neuro-2a cells. Description: Paraquat-induced PD cell model, cell viability (MTT). It is filed as cell-based, murine. To be noted: compounds 1-5; 1 and/or 10 µM; paraquat 500 µM; 24 h. The protocol: as §1, §2, §4
In series [8] the test system is a number of other cell lines. Set-up: method as in PMID 17994702, PMID 30658264. Particulars: cited from earlier work.
Series [9] is described as follows: DPPH radical scavenger assay. Particulars: 30 min; for DPPH Radical Scavenging 100 µM % of MeOH: compound 100 µM, absorbance 520 nm. The protocol:
The DPPH radical scavenging activities of the compounds were tested as described.
The compounds were dissolved in MeOH, and the solutions (120 µL) were dispensed into wells of a 96-well microplate. In all, 30 µL of the DPPH (Sigma-Aldrich, Steinheim, Germany) solution in MeOH (7.5 × 10^−3 M) was added to each well. The concentrations of the test compounds in the mixtures were 10 and 100 µM. The mixtures were shaken and left to stand for 30 min, and the absorbance of the resulting solutions was measured at 520 nm with a microplate reader MultiscanFC (ThermoScientific, Waltham, MA, USA). The concentration scavenging 50% of the DPPH radical (EC50) was calculated for each investigated compound.
(In general: DPPH is a stable violet radical that fades when it is reduced.)

Series [10] concerns rotenone-treated Neuro-2a cells. Description: Rotenone-induced PD cell model, cell viability (MTT). To be noted: compounds 1-5; 1 and/or 10 µM; rotenone 10 µM; 24 h. It is filed as cell-based, murine. The protocol:
as §1, §2, §4

Series [11] relates to K562, BEL-7042, SGC-7901, A-549 and Hela cell lines. Set-up: method as in PMID 30946944. To be noted: cited from earlier work.
For series [12], the system named is methicillin-resistant Staphylococcus aureus (MRSA), S. aureus, Enterococcus faecalis and Acinetobacter baumannii, E. coli and Klebsiella pneumonia. On the set-up: method as in PMID 30946944. Particulars: cited from earlier work.
Series [13] concerns murine lymphoma L5178Y cell line. On the set-up: method as in doi:10.1016/j.phytol.2015.06.003. Particulars: cited from earlier work.
The conditions of series [14]: cited from earlier work.

Broadly, the IC50 is the concentration that gives 50% inhibition. Usually EC50 stands for the concentration giving half of the maximal effect. Regarding `C[C@H](O)CC1=C[C@H](O)[C@@H](C)OC1=O` [Compound 5, Dihydroaspyrone], the cytotoxicity result in the series with HeLa was “weak cytotoxicity”; in series [8] it was “did not show cytotoxicity”. Moreover, the antimicrobial activity entry in [1] is “did not show”. Moreover, the “influence on ROS level in 6-OHDA-treated cells” value in series [2] was “reduced ROS level”. Also, the “effect on viability of Neuro-2a cells incubated with 6-OHDA” value in [3] was “did not demonstrate any protective effects”. Also, the “influence on ROS level in PQ-treated cells” value in series [4] was “significantly reduced the ROS level”. In the series “MTT cytotoxicity assay”, this compound had an IC50 of more than 100 µM. Besides, in series [5], the “cytotoxicity against Neuro-2a cells” value is given as “not cytotoxic”. The “influence on ROS level in rotenone-treated cells” value in series [6] is given as “significantly reduced the ROS level”. The “effect on viability of PQ-treated cells” value in series [7] is recorded as “statistically increased viability of PQ-treated cells only”. In addition, in series [9] (MeOH, read-out: DPPH Radical Scavenging EC50), the EC50 was more than 100 µM. In addition, in series [9], the “DPPH Radical Scavenging 100 µM % of MeOH” value was 95.2 ± 1.0 % of MeOH. Further, the “effect on viability of rotenone-treated cells” value in series [10] is “did not affect”.
On to `Cc1cc(O)c(C)c(=O)o1` [Compound 4, 4-hydroxy-3,6-dimethyl-2-pyrone], for which, in [11], the cytotoxic activities result is given as “ineffective”. The “effect on viability of Neuro-2a cells incubated with 6-OHDA” value in [3] was “did not demonstrate any protective effects”. Further, in [4], the “influence on ROS level in PQ-treated cells” value was “had almost no effect”. In series [12], the antibacterial activities result was “ineffective”. This compound yielded a half-maximal inhibitory concentration (IC50) in the series “MTT cytotoxicity assay” of more than 100 µM. Moreover, the “cytotoxicity against Neuro-2a cells” value in series [5] is listed as “not cytotoxic”. Moreover, the cytotoxicity result in series [13] was “weak cytotoxicity”. In series [6], the “influence on ROS level in rotenone-treated cells” value is “significantly reduced the ROS level”. Moreover, in series [7], the “effect on viability of PQ-treated cells” value was “had no effect on viability”. Also, the EC50 in series [14] (reported earlier, read-out: DPPH Radical Scavenging EC50) was 500 µM. In series [14] (via donation of a hydrogen atom and adduct forming), the “DPPH radical scavenging activity” value is on record as “shows DPPH radical scavenging activity”. For the same compound, the “DPPH Radical Scavenging 100 µM % of MeOH” value in series [9] is listed as 87.2 ± 1.4 % of MeOH. Further, the “effect on viability of rotenone-treated cells” value in series [10] was “did not affect”.
